Legend:
Assay in all cases: Cell proliferation assay (Alamar Blue)
Assay type in all cases: cell-based
NCl-H1648 = conditions: 144 h; NCl-H1648 tumor cell line; 6 days
In short: (§1)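 The compounds were tested over nine concentrations diluted 3.16-fold from a top dose of 30 or 100 μM, added 4 h after seeding log-phase cells at 500–1×10^4 per well. Plates were incubated for 6 days, then AlamarBlue fluorescence was read and IC50 values obtained by nonlinear regression.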

SK-HEP-1 = conditions: Homo sapiens, SK-HEP1, 144 h; SK-HEP-1 liver cancer cell line; 6 days
In short: as §1

HCCLM3 = conditions: Homo sapiens, 144 h; HCCLM3 tumor cell line; 6 days
In short: as §1

SNU354 = conditions: Homo sapiens, SNU-354, 144 h; SNU354 liver cancer cell line; 6 days
In short: as §1

MDA-MB-231 = conditions: Homo sapiens, 144 h; MDA-MB-231 tumor cell line; 6 days
In short: as §1

HEPG2 = conditions: Homo sapiens, 144 h; HEPG2 liver cancer cell line; 6 days
In short: as §1

HuTu80 = conditions: Homo sapiens, 144 h; HuTu80 tumor cell line; 6 days
In short: as §1

SNU449 = conditions: Homo sapiens, SNU-449, 144 h; SNU449 liver cancer cell line; 6 days
In short: as §1

TE-6 = conditions: Homo sapiens, 144 h; TE-6 tumor cell line; 6 days
In short: as §1

KASUMI-1 = KASUMI-1 (leukemia cells); for IC50: Homo sapiens, 144 h, 6 days
In short: as §1

NCl-H716 = conditions: 144 h; NCl-H716 tumor cell line; 6 days
In short: as §1

SNU182 = conditions: Homo sapiens, SNU-182, 144 h; SNU182 liver cancer cell line; 6 days
In short: as §1

SNU423 = conditions: Homo sapiens, SNU-423, 144 h; SNU423 liver cancer cell line; 6 days
In short: as §1

SNU739 = conditions: SNU-739, 144 h; SNU739 liver cancer cell line; 6 days
In short: as §1

DLD1 = conditions: Homo sapiens, DLD-1, 144 h; DLD1 tumor cell line; 6 days
In short: as §1

Hep3B2.1-7 = conditions: 144 h; Hep3B2.1-7 liver cancer cell line; 6 days
In short: as §1

SNU475 = conditions: Homo sapiens, SNU-475, 144 h; SNU475 liver cancer cell line; 6 days
In short: as §1

TE-15 = conditions: Homo sapiens, 144 h; TE-15 tumor cell line; 6 days
In short: as §1

MFM-223 = conditions: Homo sapiens, 144 h; MFM-223 tumor cell line; 6 days
In short: as §1

JHH5 = conditions: 144 h; JHH5 liver cancer cell line; 6 days
In short: as §1

JHH7 = conditions: 144 h; JHH7 liver cancer cell line; 6 days
In short: as §1

NCl-H2170 = conditions: 144 h; NCl-H2170 tumor cell line; 6 days
In short: as §1

SW620 = conditions: Homo sapiens, SW-620, 144 h; SW620 tumor cell line; 6 days
In short: as §1

| SMILES | IC50 (NCl-H1648) [µM] | IC50 (SK-HEP-1) [µM] | IC50 (HCCLM3) [µM] | IC50 (SNU354) [µM] | IC50 (MDA-MB-231) [µM] | IC50 (HEPG2) [µM] | IC50 (HuTu80) [µM] | IC50 (SNU449) [µM] | IC50 (TE-6) [µM] | IC50 (KASUMI-1) [µM] | IC50 (NCl-H716) [µM] | IC50 (SNU182) [µM] | IC50 (SNU423) [µM] | IC50 (SNU739) [µM] | IC50 (DLD1) [µM] | IC50 (Hep3B2.1-7) [µM] | IC50 (SNU475) [µM] | IC50 (TE-15) [µM] | IC50 (MFM-223) [µM] | IC50 (JHH5) [µM] | also measured |
| --- | --- | --- | --- | --- | --- | --- | --- | --- | --- | --- | --- | --- | --- | --- | --- | --- | --- | --- | --- | --- | --- |
| Cc1ccc(F)c(NC(=O)Nc2ccc(-c3cccc4c3c(N)nn4C(=O)CCCCCCCCCCCNC(=O)C[C@H](N)C(=O)N[C@@H](CCC(=O)N[C@@H](CCC(=O)N[C@@H](CCC(=O)N[C@@H](CCC(=O)O)C(=O)O)C(=O)O)C(=O)O)C(=O)O)cc2)c1 [Compound 8] | > 100 | > 100 | > 100 | 40.6 | 53.5 | 21.4 | 43.8 | 60.3 | > 100 | 0.1 | 26.9 | > 100 | 36.9 | 64.9 | 51.1 | 36.2 | 57.5 | 42.7 | 24 | 48.6 | difference of IC50 value versus Linifanib (KASUMI-1): 10 times; IC50 (JHH7): 20.7 µM; IC50 (NCl-H2170): 51.9 µM; IC50 (SW620): 44.5 µM |
| Cc1ccc(F)c(NC(=O)Nc2ccc(-c3cccc4c3c(N)nn4C(=O)CCCCCCCCCCCNC(=O)C[C@H](N)C(=O)N[C@@H](CCC(=O)N[C@@H](CCC(=O)N[C@@H](CCC(=O)N[C@@H](CCC(=O)N[C@@H](CCC(=O)N[C@@H](CCC(=O)N[C@@H](CCC(=O)N[C@@H](CCC(=O)N[C@@H](CCC(=O)O)C(=O)O)C(=O)O)C(=O)O)C(=O)O)C(=O)O)C(=O)O)C(=O)O)C(=O)O)C(=O)O)cc2)c1 [Compound 9] | > 100 | > 100 | > 100 | 67.3 | 81.1 | 11 | 73.5 | 90 | > 100 | 0.23 | 43.1 | > 100 | > 100 | > 100 | > 100 | 52.8 | 77.8 | 88.9 | 38.3 | > 100 | IC50 (JHH7): 42.2 µM; IC50 (NCl-H2170): 84 µM; IC50 (SW620): 66.7 µM |
| Cc1ccc(F)c(NC(=O)Nc2ccc(-c3cccc4c3c(N)nn4C(=O)C[C@H](N)C(=O)O)cc2)c1 [Compound 10] | 6.06 | 2.75 | 8.97 | 4.57 | 3.17 | 0.37 | 2.63 | 4.91 | 4.11 | 0.042 | 1.93 | 13.3 | 8.62 | 3.87 | 7.53 | 1.23 | 3.88 | 6.31 | 5.63 | 12.4 | IC50 (JHH7): 1.65 µM; IC50 (NCl-H2170): 1.24 µM; IC50 (SW620): 3.46 µM |
| Cc1ccc(F)c(NC(=O)Nc2ccc(-c3cccc4c3c(N)nn4C(=O)CCCCCNC(=O)C[C@H](N)C(=O)O)cc2)c1 [Compound 11] | > 100 | 55.4 | 74.3 | 63.3 | 80.4 | 11.1 | 23.1 | > 100 | > 100 | 1.21 | 82.2 | > 100 | > 100 | 64 | 88.4 | 50.4 | 76.1 | > 100 | 26.5 | 87.7 | IC50 (JHH7): 40 µM; IC50 (NCl-H2170): 72.8 µM; IC50 (SW620): 60.3 µM |
| Cc1ccc(F)c(NC(=O)Nc2ccc(-c3cccc4c3c(N)nn4C(=O)CCCCCCCCCCCNC(=O)C[C@H](N)C(=O)O)cc2)c1 [Compound 12] | > 30 | > 30 | > 30 | > 30 | > 30 | > 30 | > 30 | > 30 | > 30 | 0.05 | > 30 | 19.5 | 10.9 | > 30 | > 30 | > 30 | > 30 | > 30 | > 30 | > 30 | IC50 (JHH7): > 30 µM; IC50 (NCl-H2170): > 30 µM; IC50 (SW620): > 30 µM |
| Cc1ccc(F)c(NC(=O)Nc2ccc(-c3cccc4[nH]nc(N)c34)cc2)c1 [Linifanib, reference compound] | 7.17 | 7.11 | 6.67 | 4.58 | 4.03 | 0.83 | 1.85 | 10.2 | 4.09 | 0.01 | 4.1 | 15.2 | 9.24 | 5.45 | 11.6 | 1.96 | 5.37 | 3.6 | 1.72 | 10 | IC50 (JHH7): 1.83 µM; IC50 (NCl-H2170): 4 µM; IC50 (SW620): 2.78 µM |

— patent US11351151B2, “Compound having anticancer activity and preparation method and application” (3D Medicines (Beijing) Co., Ltd., priority 2016, dated 2022)
